Reference: patent US9695155B2, “Herbicidal substituted pyrimidinyloxy benzene compounds” (E. I. DU PONT DE NEMOURS AND COMPANY, priority 2013, dated 2017)

Assays:
galium = experiment: Test C postemergence; format: in vivo, Galium aparine; conditions: for Plant response rating (0 to 100), Galium: 16 g ai/ha, 0 is no effect, 100 is complete control; for Galium plant response rating: 31 g ai/ha; for Galium plant response rating / Plant response rating, Galium: scale 0 to 100 (0 no effect, 100 complete control)
In short: (§1)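 Greenhouse herbicide screen. Pre: seeded loam/sand, sprayed at planting. Post: 1–4 leaf plants (2–18 cm) in peat-based mix. Formulation: solvent mixture + surfactant, non-phytotoxic. Readout: visual % control vs untreated, 13–15 d; dash = not tested.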

morningglory [1] = experiment: Test A preemergence; format: in vivo, Ipomoea spp.; conditions: for Morningglory plant response rating (0 to 100 scale): 125 g ai/ha; for Morningglory plant response rating: 500 g ai/ha, 0 to 100 scale where 0 is no effect and 100 is complete control
In short: (§2)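 Visual 0–100 rating (100 = complete control) taken about 10 d post-treatment relative to untreated checks. Preemergence: directed soil spray on sown loam/sand pots. Postemergence: seedlings 2–10 cm, 1–2 leaf. Non-phytotoxic solvent formulation with surfactant.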

oilseed rape = experiment: Test C postemergence; format: in vivo, Brassica napus; conditions: for Plant response rating (0 to 100), Oilseed Rape: 16 g ai/ha, 0 is no effect, 100 is complete control; for Oilseed Rape plant response rating: 31 g ai/ha; for Oilseed Rape plant response rating / Plant response rating, Oilseed Rape: scale 0 to 100 (0 no effect, 100 complete control)
In short: as §1

blackgrass = experiment: Test C postemergence; format: in vivo, Alopecurus myosuroides; conditions: for Plant response rating (0 to 100), Blackgrass: 16 g ai/ha, 0 is no effect, 100 is complete control; for Blackgrass plant response rating: 31 g ai/ha; for Blackgrass plant response rating / Plant response rating, Blackgrass: scale 0 to 100 (0 no effect, 100 complete control)
In short: as §1

giant foxtail = experiment: Test A preemergence; format: in vivo, Setaria faberii; conditions: for Foxtail, Giant plant response rating (0 to 100 scale): 125 g ai/ha; for Foxtail, Giant plant response rating: 500 g ai/ha, 0 to 100 scale where 0 is no effect and 100 is complete control
In short: as §2

pigweed = experiment: Test C postemergence; format: in vivo, Amaranthus retroflexus; conditions: for Plant response rating (0 to 100), Pigweed: 16 g ai/ha, 0 is no effect, 100 is complete control; for Pigweed plant response rating: 31 g ai/ha; for Pigweed plant response rating / Plant response rating, Pigweed: scale 0 to 100 (0 no effect, 100 complete control)
In short: as §1

ragweed = experiment: Test C postemergence; format: in vivo, Ambrosia elatior; conditions: for Plant response rating (0 to 100), Ragweed: 16 g ai/ha, 0 is no effect, 100 is complete control; for Ragweed plant response rating: 31 g ai/ha; for Ragweed plant response rating / Plant response rating, Ragweed: scale 0 to 100 (0 no effect, 100 complete control)
In short: as §1

velvetleaf [2] = experiment: Test A postemergence; format: in vivo, Abutilon theophrasti; conditions: 0 to 100 scale where 0 is no effect and 100 is complete control; for Velvetleaf plant response rating: 125 g ai/ha; for Plant response rating, Velvetleaf: 500 g ai/ha
In short: as §2

velvetleaf [3] = experiment: Test A preemergence; format: in vivo, Abutilon theophrasti; conditions: for Velvetleaf plant response rating (0 to 100 scale): 125 g ai/ha; for Velvetleaf plant response rating: 500 g ai/ha, 0 to 100 scale where 0 is no effect and 100 is complete control
In short: as §2

wheat = experiment: Test A preemergence; format: in vivo, Triticum aestivum; conditions: for Wheat plant response rating (0 to 100 scale): 125 g ai/ha
In short: as §2

kochia = experiment: Test C postemergence; format: in vivo, Kochia scoparia; conditions: for Plant response rating (0 to 100), Kochia: 16 g ai/ha, 0 is no effect, 100 is complete control; for Kochia plant response rating: 31 g ai/ha; for Kochia plant response rating / Plant response rating, Kochia: scale 0 to 100 (0 no effect, 100 complete control)
In short: as §1

velvetleaf [4] = experiment: Test C postemergence; format: in vivo, Abutilon theophrasti; conditions: for Plant response rating (0 to 100), Velvetleaf: 16 g ai/ha, 0 is no effect, 100 is complete control; for Velvetleaf plant response rating: 31 g ai/ha; for Velvetleaf plant response rating / Plant response rating, Velvetleaf: scale 0 to 100 (0 no effect, 100 complete control)
In short: as §1

corn = experiment: Test A postemergence; format: in vivo, Zea mays; conditions: 0 to 100 scale where 0 is no effect and 100 is complete control; for Corn plant response rating: 125 g ai/ha; for Plant response rating, Corn: 500 g ai/ha
In short: as §2

waterhemp = experiment: Test C postemergence; format: in vivo, Amaranthus rudis; conditions: for Plant response rating (0 to 100), Waterhemp: 16 g ai/ha, 0 is no effect, 100 is complete control; for Waterhemp plant response rating: 31 g ai/ha; for Waterhemp plant response rating / Plant response rating, Waterhemp: scale 0 to 100 (0 no effect, 100 complete control)
In short: as §1

soybean = experiment: Test C postemergence; format: in vivo, Glycine max; conditions: for Plant response rating (0 to 100), Soybean: 16 g ai/ha, 0 is no effect, 100 is complete control; for Soybean plant response rating: 31 g ai/ha; for Soybean plant response rating / Plant response rating, Soybean: scale 0 to 100 (0 no effect, 100 complete control)
In short: as §1

morningglory [5] = experiment: Test A postemergence; format: in vivo, Ipomoea spp.; conditions: 0 to 100 scale where 0 is no effect and 100 is complete control; for Morningglory plant response rating: 125 g ai/ha; for Plant response rating, Morningglory: 500 g ai/ha
In short: as §2

johnsongrass = experiment: Test C postemergence; format: in vivo, Sorghum halepense; conditions: for Plant response rating (0 to 100), Johnsongrass: 16 g ai/ha, 0 is no effect, 100 is complete control; for Johnsongrass plant response rating: 31 g ai/ha; for Johnsongrass plant response rating / Plant response rating, Johnsongrass: scale 0 to 100 (0 no effect, 100 complete control)
In short: as §1

wheat, winter = experiment: Test C postemergence; format: in vivo, Triticum aestivum; conditions: for Plant response rating (0 to 100), Wheat: 16 g ai/ha, 0 is no effect, 100 is complete control; for Wheat plant response rating: 31 g ai/ha; for Wheat plant response rating / Plant response rating, Wheat: scale 0 to 100 (0 no effect, 100 complete control)
In short: as §1

[6] = postemergence, visual rating, 13 to 15 days
[7] = 125 g ai/ha, postemergence, visual rating
[8] = Postemergence, 62 g ai/ha, 13 to 15 days

Fc1cnc(Oc2ccccc2-n2cc(C(F)F)cn2)nc1 [Compound 228]
Plant response rating (0 to 100), Galium (galium; postemergence): 50
Galium plant response rating (galium; [6]): 50
Plant response rating, Galium (galium; [7]): 80
Plant response rating, Galium (galium; [8]): 70
Morningglory plant response rating (0 to 100 scale) (morningglory [1]): 10
Morningglory plant response rating (morningglory [1]): 80
Plant response rating (0 to 100), Oilseed Rape (oilseed rape; postemergence): 40
Oilseed Rape plant response rating (oilseed rape; [6]): 60
Plant response rating, Oilseed Rape (oilseed rape; [7]): 85
Plant response rating, Oilseed Rape (oilseed rape; [8]): 60
Plant response rating (0 to 100), Blackgrass (blackgrass; postemergence): 0
Blackgrass plant response rating (blackgrass; [6]): 0
Plant response rating, Blackgrass (blackgrass; [7]): 40
Plant response rating, Blackgrass (blackgrass; [8]): 0
Foxtail, Giant plant response rating (0 to 100 scale) (giant foxtail): 90
Foxtail, Giant plant response rating (giant foxtail): 100
Plant response rating (0 to 100), Pigweed (pigweed; postemergence): 25
Pigweed plant response rating (pigweed; [6]): 50
Plant response rating, Pigweed (pigweed; [7]): 55
Plant response rating, Pigweed (pigweed; [8]): 60
Plant response rating (0 to 100), Ragweed (ragweed; postemergence): 5
Ragweed plant response rating (ragweed; [6]): 20
Plant response rating, Ragweed (ragweed; [7]): 45
Plant response rating, Ragweed (ragweed; [8]): 55
Velvetleaf plant response rating (velvetleaf [2]): 100
Plant response rating, Velvetleaf (velvetleaf [2]): 100
Velvetleaf plant response rating (0 to 100 scale) (velvetleaf [3]): 70
Velvetleaf plant response rating (velvetleaf [3]): 100
Wheat plant response rating (0 to 100 scale) (wheat): 0
Wheat plant response rating (wheat; 500 g ai/ha, 0 to 100 scale where 0 is no effect and 100 is complete control): 0
Plant response rating (0 to 100), Kochia (kochia; postemergence): 30
Kochia plant response rating (kochia; [6]): 60
Plant response rating, Kochia (kochia; [7]): 85
Plant response rating, Kochia (kochia; [8]): 80
Plant response rating (0 to 100), Velvetleaf (velvetleaf [4]; postemergence): 15
Velvetleaf plant response rating (velvetleaf [4]; [6]): 55
Plant response rating, Velvetleaf (velvetleaf [4]; [7]): 70
Plant response rating, Velvetleaf (velvetleaf [4]; [8]): 60
Corn plant response rating (corn): 50
Plant response rating, Corn (corn): 10
Plant response rating (0 to 100), Waterhemp (waterhemp; postemergence): 15
Waterhemp plant response rating (waterhemp; [6]): 45
Plant response rating, Waterhemp (waterhemp; [7]): 75
Plant response rating, Waterhemp (waterhemp; [8]): 60
Plant response rating (0 to 100), Soybean (soybean; postemergence): 25
Soybean plant response rating (soybean; [6]): 35
Plant response rating, Soybean (soybean; [7]): 80
Plant response rating, Soybean (soybean; [8]): 60
Morningglory plant response rating (morningglory [5]): 80
Plant response rating, Morningglory (morningglory [5]): 100
Plant response rating (0 to 100), Johnsongrass (johnsongrass; postemergence): 5
Johnsongrass plant response rating (johnsongrass; [6]): 0
Plant response rating, Johnsongrass (johnsongrass; [7]): 10
Plant response rating, Johnsongrass (johnsongrass; [8]): 5
Plant response rating (0 to 100), Wheat (wheat, winter; postemergence): 0
Wheat plant response rating (wheat, winter; [6]): 0
Plant response rating, Wheat (wheat, winter; [7]): 0
Plant response rating, Wheat (wheat, winter; [8]): 0

FC(F)c1cnn(-c2c(Cl)cccc2Oc2ncc(Cl)cn2)c1 [Compound 192]
Plant response rating (0 to 100), Galium (galium; postemergence): 60
Galium plant response rating (galium; [6]): 80
Plant response rating, Galium (galium; [7]): 85
Plant response rating, Galium (galium; [8]): 80
Morningglory plant response rating (0 to 100 scale) (morningglory [1]): 30
Morningglory plant response rating (morningglory [1]): 100
Plant response rating (0 to 100), Oilseed Rape (oilseed rape; postemergence): 10
Oilseed Rape plant response rating (oilseed rape; [6]): 5
Plant response rating, Oilseed Rape (oilseed rape; [7]): 60
Plant response rating, Oilseed Rape (oilseed rape; [8]): 60
Plant response rating (0 to 100), Blackgrass (blackgrass; postemergence): 0
Blackgrass plant response rating (blackgrass; [6]): 0
Plant response rating, Blackgrass (blackgrass; [7]): 10
Plant response rating, Blackgrass (blackgrass; [8]): 5
Foxtail, Giant plant response rating (0 to 100 scale) (giant foxtail): 100
Foxtail, Giant plant response rating (giant foxtail): 100
Plant response rating (0 to 100), Pigweed (pigweed; postemergence): 60
Pigweed plant response rating (pigweed; [6]): 65
Plant response rating, Pigweed (pigweed; [7]): 70
Plant response rating, Pigweed (pigweed; [8]): 80
Plant response rating (0 to 100), Ragweed (ragweed; postemergence): 10
Ragweed plant response rating (ragweed; [6]): 25
Plant response rating, Ragweed (ragweed; [7]): 45
Plant response rating, Ragweed (ragweed; [8]): 15
Velvetleaf plant response rating (velvetleaf [2]): 90
Plant response rating, Velvetleaf (velvetleaf [2]): 100
Velvetleaf plant response rating (0 to 100 scale) (velvetleaf [3]): 90
Velvetleaf plant response rating (velvetleaf [3]): 100
Wheat plant response rating (0 to 100 scale) (wheat): 0
Plant response rating (0 to 100), Kochia (kochia; postemergence): 30
Kochia plant response rating (kochia; [6]): 45
Plant response rating, Kochia (kochia; [7]): 90
Plant response rating, Kochia (kochia; [8]): 85
Plant response rating (0 to 100), Velvetleaf (velvetleaf [4]; postemergence): 35
Velvetleaf plant response rating (velvetleaf [4]; [6]): 60
Plant response rating, Velvetleaf (velvetleaf [4]; [7]): 75
Plant response rating, Velvetleaf (velvetleaf [4]; [8]): 65
Corn plant response rating (corn): 10
Plant response rating, Corn (corn): 60
Plant response rating (0 to 100), Waterhemp (waterhemp; postemergence): 40
Waterhemp plant response rating (waterhemp; [6]): 50
Plant response rating, Waterhemp (waterhemp; [7]): 85
Plant response rating, Waterhemp (waterhemp; [8]): 65
Plant response rating (0 to 100), Soybean (soybean; postemergence): 30
Soybean plant response rating (soybean; [6]): 30
Plant response rating, Soybean (soybean; [7]): 80
Plant response rating, Soybean (soybean; [8]): 75
Morningglory plant response rating (morningglory [5]): 80
Plant response rating, Morningglory (morningglory [5]): 100
Plant response rating (0 to 100), Johnsongrass (johnsongrass; postemergence): 5
Johnsongrass plant response rating (johnsongrass; [6]): 10
Plant response rating, Johnsongrass (johnsongrass; [7]): 10
Plant response rating, Johnsongrass (johnsongrass; [8]): 5
Plant response rating (0 to 100), Wheat (wheat, winter; postemergence): 0
Wheat plant response rating (wheat, winter; [6]): 0
Plant response rating, Wheat (wheat, winter; [7]): 5
Plant response rating, Wheat (wheat, winter; [8]): 5
